Converted amounts (≈) assume the structure as drawn. “Also recorded” adds a separate entry of the source.

One data set deals with K-ras NRK cells. Put plainly: Propagation inhibitory effect on K-ras NRK cells. The format is cell-based. The settings on record: Rattus norvegicus, 72 h, 3 days, read-out: IC50, cell propagation. The protocol: (§1) Next, cells of different types were inoculated in wells of 12 wells plastic plate (Costar 3521, manufactured by Costar) at 2.0×10^4 /DMEM 1 ml/well, and the plate was incubated in an incubator of 5% CO2 for one day. III-121C was added to the thus incubated cells to different concentrations and incubation was continued for another 3 days. The number of cells was measured by repeating the above-described procedure to determine the concentration (IC50) of the III-121C required to inhibit the cell propagation to 50%.

The next data set concerns RSV NRK cells. The data set is described as follows: Propagation inhibitory effect on RSV NRK cells. The format is cell-based. The settings on record: Rattus norvegicus, 72 h, 33° C., 3 days, read-out: IC50, cell propagation.
The test system of the next data set is K-ras-NRK tumor. Put plainly: Growth of K-ras-NRK tumor in nude mice. The format is in vivo. The settings on record: K-ras-NRK s.c., intraperitoneal, days 0, 2, 4 (FIG. 8). As to the method:
To 4 groups of nude mice (each group comprising 6 individuals) were subcutaneously inoculated 1×10^6 cells of K-ras-NRK on their back. Formation of a small tumor was recognized after 4 days from the inoculation, and intraperitoneal administration of III-121C at different doses was started on this day (day 0). III-121C was additionally administered after two days and four days from the start of the administration to measure the volume of the tumor. No III-121C was administered to the mice of the control group. The results are depicted in FIG. 8.

For data set [1], the system named is N-ras-NIH 3T3 cells. Put plainly: Propagation inhibitory effect on N-ras-NIH 3T3 cells. The settings on record: Mus musculus, NIH3T3, 72 h; N-ras-NIH 3T3, 3 days; read-out: IC50, cell propagation. Type of data set: cell-based. As to the method:
(§2) Normal rat kidney cell, NRK-49 (Dainihon Pharmaceutical K.K.) and normal mouse cell, NIH 3T3 (JCRB Cell Bank); and K-ras NIH 3T3, H-ras NIH 3T3, and N-ras NIH 3T3 (Tokyo University, Medical Science Institute, Japan) which are cell lines that have been transformed with Kirsten sarcoma virus, Harvey sarcoma virus, and neuroblastoma virus, respectively, were incubated at 37° C. in the similar manner.
as §1

Another data set has as its system NIH 3T3 cells. The data set is described as follows: Propagation inhibitory effect on NIH 3T3 cells. The format is cell-based. The settings on record: Mus musculus, NIH3T3, 72 h; NIH 3T3, 3 days; read-out: IC50, cell propagation. The protocol:
as §2, §1

The subject of data set [2] is K-ras-NIH 3T3 cells. Put plainly: Activity to induce changes in cell morphology, K-ras-NIH 3T3 cells. Type of data set: cell-based, mouse. The note with it: 0.3 μg/ml, 2 days. The protocol:
as §2
(§3) The effect of the III-121C on various types of cultured cells was evaluated by inoculating each type of cells in wells of 24 wells plastic plate (Costar 3524, manufactured by Costar) at 3×10^4 cells/1 ml medium/well; incubating the plate in an incubator of 5% CO2 for one day; and adding the III-121C sample to the cell cultures to observe the cell morphology for another two days.
(§4) K-ras-NIH 3T3 and H-ras-NIH 3T3 are transformed cell lines, and the cells are elongated with projections or processes on their surface, and grow atop the other. N-ras-NIH 3T3 cells are also elongated and their projections or processes are even longer.

For a further data set, the system named is RSV^ts-NRK cells. The data set is described as follows: Activity to induce changes in cell morphology, RSV^ts-NRK cells. The format is cell-based, rat. The settings on record: 0.3 μg/ml, 2 days. The protocol: as §2, §3
RSV^ts -NRK is a cell line that had been transformed with an src oncogene, and is temperature sensitive as in the case of K-ras^ts -NRK.

The next data set has as its system K-ras-NRK cells. The data set is described as follows: Action mechanism: flow-cytometric DNA content analysis of K-ras-NRK cells. The format is cell-based, rat. The settings on record: 24 hours; III-121C 0.3 and 1 μg/ml, vinblastine 0.1 μg/ml (FIG. 11). As to the method:
FIGS. 11(a) to (d) are graphs showing the results of flow-cytometric analysis wherein the number of cells is depicted in relation to their DNA content, upon addition of no reagent (FIG. 11(a)), 0.3 μg/ml of III-121C (FIG. 11(b)), 1 μg/ml of III-121C (FIG. 11(c)), and 0.1 μg/ml of vinblastine (FIG. 11(d)) to the K-ras NRK cell culture.
To the cells of K-ras-NRK in their propagation was added either one of III-121C and vinblastine. No reagent was added to the control cells. After 24 hours from the addition, the cells were fractionated with a cell sorter to examine the DNA quantity in relation to the number of the cells.

Data set [3] in a line: Acute toxicity (LD50) on mouse upon intravenous injection. The settings on record: in vivo, intravenous injection. Type of data set: in vivo. The protocol: (§5) Toxicity (LD50) on mouse of III-121C upon intravenous injection was measured.
Another data set concerns mouse. Described as above. The format is in vivo. The settings on record: compared to conventional alkaloid carcinostatics of plant origin. As to the method:
as §5

For data set [4], the system named is N-ras-NIH 3T3 cells. Put plainly: Activity to induce changes in cell morphology, N-ras-NIH 3T3 cells. Type of data set: cell-based, mouse. The note with it: 0.3 μg/ml, 2 days. As to the method:
as §2, §3, §4

The subject of another data set is NRK cells. The data set is described as follows: Propagation inhibitory effect on NRK cells. The format is cell-based. The settings on record: Rattus norvegicus, 72 h, 3 days, read-out: IC50, cell propagation. As to the method:
as §2, §1

Another data set has as its system cell morphology. The data set is described as follows: Cell morphology normalizing activity (extract, fractions, purified product). The format is cell-based. As to the method: The inventors of the present invention then succeeded in the isolation and characterization of the active component in the extract. The present invention has been completed on the bases of such study.
To a small amount of chloroform was dissolved 1.34 g of the extract, and the resulting solution was charged in a column having packed therein 10 g of silica gel (Merck silicagel 60, manufactured by Merck). To the column was first added 100% chloroform to elute the impurities, and then, 100:1 chloroform:methanol was added and the eluate was fractionated into portions of about 10 ml. Each fraction was examined by thin layer chromatography (silica gel; 20:1 chloroform:methanol solvent; UV 330 nm), and fractions having an Rf of 0.56 with blue color were collected.
The thus obtained active substance was dissolved in a small amount of methanol. After removing the precipitates, the solution was charged in a column of Toyopearl HW-40 that had been equilibrated with methanol to thereby carry out the gel filtration chromatography. The column was eluted with 100% methanol and 3 ml fractions were collected. The thus collected fractions were analyzed by thin layer chromatography using 20:1 chloroform:methanol for the developer. […] This substance is hereinafter referred to as III-121C.

Data set [5] has as its system K-ras-NIH 3T3 cells. Put plainly: Propagation inhibitory effect on K-ras-NIH 3T3 cells. Type of data set: cell-based. The settings on record: Mus musculus, NIH3T3, 72 h; K-ras-NIH 3T3, 3 days; read-out: IC50, cell propagation. As to the method: as §2, §1

With `CCC12CC(C(=O)OC)=C3Nc4cc5c(cc4C34CCN(CC3OC31)C42)C1C(O5)C(O)C2(CC)CC(C(=O)OC)=C3Nc4c(cc(O)c(OC)c4OC)C34CCN1C42` (stereo not shown) [III-121C], the IC50 with K-ras NRK cells is 0.4 µg/mL (≈ 0.503 µM); in the data set with RSV NRK cells, 0.11 µg/mL (≈ 0.138 µM); with N-ras-NIH 3T3 cells [1], 0.12 µg/mL (≈ 0.151 µM); with NIH 3T3 cells it was 0.47 µg/mL (≈ 0.591 µM); in the data set with NRK cells it was 0.19 µg/mL (≈ 0.239 µM); in the data set with K-ras-NIH 3T3 cells [5], 0.4 µg/mL (≈ 0.503 µM). Further, the tumor growth inhibition result in the data set on K-ras-NRK tumor is listed as “the growth of the tumor was inhibited in a dose dependent manner; also recorded: growth suppression of tumors in living mammals”. The “change in cell morphology and growth habits” value in the data set on K-ras-NIH 3T3 cells [2] was “the cells changed their morphology and growth habits to those of normal NIH 3T3 cells, and became flat with an increased area of contact”; with N-ras-NIH 3T3 cells [4] it was “the cells changed their morphology and growth habits to those of normal NIH 3T3 cells, and became flat with an increased area of contact”. In addition, the “change in cell morphology” value in the data set on RSV^ts-NRK cells (33° C.) and in the data set on RSV^ts-NRK cells (39° C.) was “changed their cell morphology to have a rounded appearance similar to the morphology of the normal NRK-49 cells” each time. The “cell cycle / cell division inhibition” value in the data set on K-ras-NRK cells is reported as “Absence of the cell division inhibitory activity”. For the same compound, the “distribution of DNA quantity in cells” value in the data set on K-ras-NRK cells is given as “distribution of the DNA quantity in the cells was identical with that of the control cells”. In data set [3], this compound yielded an LD50 of 24.3 mg/kg. In addition, the “acute toxicity in words” value in the data set with mouse is “weaker toxicity; also recorded: low acute toxicity”. Besides, the “activity of normalizing the cell morphology” value with cell morphology is “confirmed to have an activity of normalizing the cell morphology”.

(Values after patent US5559115A, “Oncogene function-inhibitory agent, method for inhibiting oncogene function, and treatment of cancer” (Terumo Kabushiki Kaisha, priority 1993, dated 1996).)
